From ChEMBL document CHEMBL1201862, “PubChem BioAssay data set” (2004)
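Five compound concentrations were applied to cells in 96-well plates for 48 hours; endpoints were derived by simple linear interpolation of the resulting dose-response curve. At the GI50, growth is halved.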 The source made the active and inactive calls. Cut-off read from the data, not from the text of the source: active = GI50 up to about 1.1 µM and inactive = higher.

Experiments:
Experiment in all cases: NCI tumour cell line growth inhibition, 48 h
HOP-92 = test system: HOP-92
DU-145 = test system: DU-145
SNB-75 = test system: SNB-75
NCI-H226 = test system: NCI-H226
HL-60 = test system: HL-60
786-0 = test system: 786-0
CCRF-CEM = test system: CCRF-CEM
A498 = test system: A498
K562 = test system: K562
HOP-62 = test system: HOP-62
OVCAR-3 = test system: OVCAR-3
MDA-MB-231 = test system: MDA-MB-231
KM12 = test system: KM12
UACC-62 = test system: UACC-62
M14 = test system: M14
OVCAR-8 = test system: OVCAR-8
SK-MEL-5 = test system: SK-MEL-5
T47D = test system: T47D
UACC-257 = test system: UACC-257
SF-295 = test system: SF-295
SF-268 = test system: SF-268
BT-549 = test system: BT-549
COLO 205 = test system: COLO 205
OVCAR-5 = test system: OVCAR-5
CAKI-1 = test system: CAKI-1
SNB-19 = test system: SNB-19
TK-10 = test system: TK-10
SR = test system: SR
MDA-N = test system: MDA-N
SF-539 = test system: SF-539
MDA-MB-435 = test system: MDA-MB-435
PC-3 = test system: PC-3
SN12C = test system: SN12C
LOX IMVI = test system: LOX IMVI
IGROV-1 = test system: IGROV-1
NCI-H460 = test system: NCI-H460
MCF7 = test system: MCF7
UO-31 = test system: UO-31
ACHN = test system: ACHN
SK-OV-3 = test system: SK-OV-3
A549 = test system: A549
NCI-H23 = test system: NCI-H23
SK-MEL-28 = test system: SK-MEL-28
HCT-116 = test system: HCT-116
EKVX = test system: EKVX
OVCAR-4 = test system: OVCAR-4
Malme-3M = test system: Malme-3M
SK-MEL-2 = test system: SK-MEL-2
HCT-15 = test system: HCT-15
U-251 = test system: U-251
RXF 393 = test system: RXF 393
RPMI-8226 = test system: RPMI-8226
NCI-H522 = test system: NCI-H522
NCI/ADR-RES = test system: NCI/ADR-RES
HCC 2998 = test system: HCC 2998
SW-620 = test system: SW-620
HT-29 = test system: HT-29
MOLT-4 = test system: MOLT-4
Hs-578T = test system: Hs-578T

For `CCN(CC)c1c(N(CC)CC)c(=O)c1=O`, the GI50 (HOP-92) was 3.94 µM (inactive), the GI50 (DU-145) was 9.31 µM (inactive) and the GI50 (SNB-75) was 30.3 µM (inactive). For the same compound, the GI50 (NCI-H226) was 17.2 µM (inactive), the GI50 (HL-60) was 2.23 µM (inactive) and the GI50 (786-0) was 5.35 µM (inactive). For the same compound, the GI50 (CCRF-CEM) was 3.53 µM (inactive), the GI50 (A498) was 22.6 µM (inactive) and the GI50 (K562) was 6.12 µM (inactive). The GI50 (HOP-62) was 29.9 µM (inactive), the GI50 (OVCAR-3) was 9.71 µM (inactive) and the GI50 (MDA-MB-231) was 7.55 µM (inactive). The GI50 (KM12) was 22.6 µM (inactive), the GI50 (UACC-62) was 18.2 µM (inactive) and the GI50 (M14) was 16.7 µM (inactive). For the same compound, the GI50 (OVCAR-8) was 10.3 µM (inactive), the GI50 (SK-MEL-5) was 17.4 µM (inactive) and the GI50 (T47D) was 3.18 µM (inactive). For the same compound, the GI50 (UACC-257) was 9.48 µM (inactive), the GI50 (SF-295) was > 88.9 µM (inactive) and the GI50 (SF-268) was 26.1 µM (inactive). The GI50 (BT-549) was 19.1 µM (inactive), the GI50 (COLO 205) was 2.63 µM (inactive) and the GI50 (OVCAR-5) was 18 µM (inactive). For the same compound, the GI50 (CAKI-1) was 4.27 µM (inactive), the GI50 (SNB-19) was > 63.8 µM (inactive) and the GI50 (TK-10) was 2.82 µM (inactive). For the same compound, the GI50 (SR) was 24.8 µM (inactive), the GI50 (MDA-N) was 16.3 µM (inactive) and the GI50 (SF-539) was 8.05 µM (inactive). The GI50 (MDA-MB-435) was 20.7 µM (inactive), the GI50 (PC-3) was 17.9 µM (inactive) and the GI50 (SN12C) was 9.1 µM (inactive). For the same compound, the GI50 (LOX IMVI) was 11.8 µM (inactive), the GI50 (IGROV-1) was 2.81 µM (inactive) and the GI50 (NCI-H460) was 39.5 µM (inactive). For the same compound, the GI50 (MCF7) was 11.2 µM (inactive), the GI50 (UO-31) was 5.32 µM (inactive) and the GI50 (ACHN) was 3.18 µM (inactive). The GI50 (SK-OV-3) was > 100 µM (inactive), the GI50 (A549) was 22.5 µM (inactive) and the GI50 (NCI-H23) was 10.6 µM (inactive). For the same compound, the GI50 (SK-MEL-28) was 17.4 µM (inactive), the GI50 (HCT-116) was 8.07 µM (inactive) and the GI50 (EKVX) was 14.9 µM (inactive). The GI50 (OVCAR-4) was 18.9 µM (inactive), the GI50 (Malme-3M) was 3.25 µM (inactive) and the GI50 (SK-MEL-2) was 22.5 µM (inactive). For the same compound, the GI50 (HCT-15) was 3.67 µM, the GI50 (U-251) was 22.9 µM (inactive) and the GI50 (RXF 393) was 11.3 µM (inactive). The GI50 (RPMI-8226) was 1.88 µM (inactive), the GI50 (NCI-H522) was 2.14 µM (inactive) and the GI50 (NCI/ADR-RES) was 24.4 µM (inactive). For the same compound, the GI50 (HCC 2998) was 20.3 µM (inactive), the GI50 (SW-620) was 4.16 µM (inactive) and the GI50 (HT-29) was 2.42 µM (inactive). The GI50 (MOLT-4) was 3.1 µM (inactive) and the GI50 (Hs-578T) was 21.7 µM (inactive).
`COc1ccc(/C=C/c2cc(=O)cc(/C=C/c3ccc(OC)c(O)c3)o2)cc1O` was tested, and the GI50 (HOP-92) was 3.39 µM (inactive), the GI50 (DU-145) was 2.92 µM (inactive) and the GI50 (SNB-75) was 3.82 µM (inactive). The GI50 (NCI-H226) was 5.21 µM (inactive), the GI50 (HL-60) was 2 µM (inactive) and the GI50 (786-0) was 3.06 µM (inactive). The GI50 (CCRF-CEM) was 2.82 µM (inactive), the GI50 (A498) was 3.53 µM (inactive) and the GI50 (K562) was 2.42 µM (inactive). The GI50 (HOP-62) was 3.41 µM (inactive), the GI50 (OVCAR-3) was 2.52 µM (inactive) and the GI50 (MDA-MB-231) was 2.05 µM (inactive). For the same compound, the GI50 (KM12) was 1.99 µM (inactive), the GI50 (UACC-62) was 1.75 µM (inactive) and the GI50 (M14) was 2.31 µM (inactive). The GI50 (OVCAR-8) was 2.91 µM (inactive), the GI50 (SK-MEL-5) was 1.88 µM (inactive) and the GI50 (T47D) was 1.98 µM (inactive). For the same compound, the GI50 (UACC-257) was 2.04 µM (inactive), the GI50 (SF-295) was 3.52 µM (inactive) and the GI50 (SF-268) was 3.02 µM (inactive). The GI50 (BT-549) was 2.65 µM (inactive), the GI50 (COLO 205) was 11.2 µM (inactive) and the GI50 (OVCAR-5) was 9.4 µM (inactive). The GI50 (CAKI-1) was 3.55 µM (inactive), the GI50 (SNB-19) was 4.84 µM (inactive) and the GI50 (TK-10) was 4.26 µM (inactive). For the same compound, the GI50 (SR) was 1.02 µM (active), the GI50 (MDA-N) was 1.44 µM (inactive) and the GI50 (SF-539) was 1.98 µM (inactive). For the same compound, the GI50 (MDA-MB-435) was 0.971 µM (active), the GI50 (PC-3) was 3.26 µM (inactive) and the GI50 (SN12C) was 3.17 µM (inactive). For the same compound, the GI50 (LOX IMVI) was 1.76 µM (inactive), the GI50 (IGROV-1) was 3.22 µM (inactive) and the GI50 (NCI-H460) was 2.21 µM (inactive). The GI50 (MCF7) was 2.14 µM (inactive), the GI50 (UO-31) was 3.83 µM (inactive) and the GI50 (ACHN) was 2.48 µM (inactive). For the same compound, the GI50 (SK-OV-3) was 5.66 µM (inactive), the GI50 (A549) was 3.14 µM (inactive) and the GI50 (NCI-H23) was 2.43 µM (inactive). For the same compound, the GI50 (SK-MEL-28) was 3.56 µM (inactive), the GI50 (HCT-116) was 2.43 µM (inactive) and the GI50 (EKVX) was 4.52 µM (inactive). The GI50 (OVCAR-4) was 2.81 µM (inactive), the GI50 (Malme-3M) was 2.16 µM (inactive) and the GI50 (SK-MEL-2) was 2.69 µM (inactive). For the same compound, the GI50 (HCT-15) was 2.29 µM, the GI50 (U-251) was 1.94 µM (inactive) and the GI50 (RXF 393) was 1.11 µM (active). For the same compound, the GI50 (RPMI-8226) was 0.317 µM (active), the GI50 (NCI-H522) was 2.24 µM (inactive) and the GI50 (NCI/ADR-RES) was 2.89 µM (inactive). The GI50 (HCC 2998) was 1.78 µM (inactive), the GI50 (SW-620) was 2.71 µM (inactive) and the GI50 (HT-29) was 1.98 µM (inactive). The GI50 (MOLT-4) was 2.24 µM (inactive) and the GI50 (Hs-578T) was 3.5 µM (inactive).
